One block for each compound: values may come before it. The source made the active and inactive calls. No cut-off for these calls is given here.
Experiments:
[1] = target: Metabotropic glutamate receptor 6 (Homo sapiens) (UniProt O15303); assay: Compound was evaluated for its agonist activity against mGluR6 in Chinese hamster ovary (CHO) cells at a concentration of 300 uM; type: functional, cell-based
[2] = target: Metabotropic glutamate receptor 6 (Homo sapiens) (UniProt O15303); assay: Compound was evaluated for its agonist activity against mGluR6 in Chinese hamster ovary (CHO) cells; Inactive; type: functional, cell-based
Rattus norvegicus = species: Rattus norvegicus; assay: Compound was evaluated for its antagonist activity and inhibition of forskolin-stimulated cAMP formation by L-AP4 (10 uM), in adult rat cortical slices; type: functional

Chain of Metabotropic glutamate receptor 6 (Homo sapiens) (O15303 whole entry): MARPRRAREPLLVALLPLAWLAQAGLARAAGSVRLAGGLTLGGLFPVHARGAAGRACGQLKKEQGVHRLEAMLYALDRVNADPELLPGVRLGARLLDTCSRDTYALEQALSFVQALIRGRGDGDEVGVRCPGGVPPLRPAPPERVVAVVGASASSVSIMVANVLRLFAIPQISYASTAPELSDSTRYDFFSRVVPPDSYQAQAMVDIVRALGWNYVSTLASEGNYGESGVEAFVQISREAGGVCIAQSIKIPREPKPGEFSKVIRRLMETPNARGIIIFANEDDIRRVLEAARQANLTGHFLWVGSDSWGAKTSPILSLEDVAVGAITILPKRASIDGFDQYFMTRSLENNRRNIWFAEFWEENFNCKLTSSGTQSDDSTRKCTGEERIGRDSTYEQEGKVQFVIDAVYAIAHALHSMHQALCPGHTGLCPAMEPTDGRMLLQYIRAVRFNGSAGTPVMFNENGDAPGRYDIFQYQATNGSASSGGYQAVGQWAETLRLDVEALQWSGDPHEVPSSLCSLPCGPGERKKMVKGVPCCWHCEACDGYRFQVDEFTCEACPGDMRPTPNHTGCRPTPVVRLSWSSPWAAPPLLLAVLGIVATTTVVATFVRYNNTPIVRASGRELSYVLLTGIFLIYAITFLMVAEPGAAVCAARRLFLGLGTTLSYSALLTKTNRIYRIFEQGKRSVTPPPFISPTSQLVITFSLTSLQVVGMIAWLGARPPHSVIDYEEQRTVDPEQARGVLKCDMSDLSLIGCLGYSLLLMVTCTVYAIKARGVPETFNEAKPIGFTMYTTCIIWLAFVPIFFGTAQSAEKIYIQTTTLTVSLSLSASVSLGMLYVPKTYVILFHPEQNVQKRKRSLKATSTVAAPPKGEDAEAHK

inhibition [1]: 27%
SMILES: C[C@](N)(Cc1cccc(P(=O)(O)O)c1)C(=O)O

inhibition [2]: inactive
SMILES: C[C@@]1(C(=O)O)Cc2cc(C(=O)O)ccc2CN1

IC50 (Rattus norvegicus): 1000 nM
SMILES: C[C@](N)(Cc1cccc(C(=O)O)c1)C(=O)O

From ChEMBL document CHEMBL1131548, “Synthesis and biological evaluation of two analogues of (S)-alpha-methyl-3-carboxyphenylalanine” (Bioorg Med Chem Lett, 1998)
